≈ marks a conversion by molar mass, not a printed value.
The molecules below were run on Mycobacterium tuberculosis (assay: Antimycobacterial activity against multi-drug resistant Mycobacterium tuberculosis).
Type: functional
In the case of `COc1c(N2CCN(CN3C(=O)/C(=N\c4ccc(S(=O)(=O)Nc5ncccn5)cc4)c4cc(Cl)ccc43)C(C)C2)c(F)cc2c(=O)c(C(=O)O)cn(C3CC3)c12` (configuration not stated), the MIC is reported as 0.1 mg/L (≈ 0.125 µM).
`COc1c(N2CCN(Cn3c(O)c(/N=N/C(=N)S)c4cc(F)ccc43)C(C)C2)c(F)cc2c(=O)c(C(=O)O)cn(C3CC3)c12` (configuration not stated) gave an MIC of 0.1 mg/L (≈ 0.16 µM).
In the case of `COc1c(N2CCN(Cn3c(O)c(/N=N/C(=O)c4ccncc4)c4cc(C)ccc43)C(C)C2)c(F)cc2c(=O)c(C(=O)O)cn(C3CC3)c12` (configuration not stated), the MIC is reported as 0.78 mg/L (≈ 1.17 µM).
`COc1c(N2CCN(CN3C(=O)/C(=N\c4ccc(S(=O)(=O)Nc5ncccn5)cc4)c4ccccc43)C(C)C2)c(F)cc2c(=O)c(C(=O)O)cn(C3CC3)c12` (configuration not stated) was tested, and the MIC was 0.1 mg/L (≈ 0.13 µM).
`COc1c(N2CCN(CN3C(=O)/C(=N\c4ccc(S(=O)(=O)Nc5ncccn5)cc4)c4cc(C)ccc43)C(C)C2)c(F)cc2c(=O)c(C(=O)O)cn(C3CC3)c12` (configuration not stated) gave an MIC of 0.78 mg/L (≈ 0.999 µM).
`COc1c(N2CCN(CN3C(=O)/C(=N\c4ccc(S(=O)(=O)Nc5ncccn5)cc4)c4cc(F)ccc43)C(C)C2)c(F)cc2c(=O)c(C(=O)O)cn(C3CC3)c12` (configuration not stated) showed an MIC of 0.1 mg/L (≈ 0.127 µM).
With `COc1c(N2CCN(Cn3c(O)c(/N=N/C(N)=O)c4cc(F)ccc43)C(C)C2)c(F)cc2c(=O)c(C(=O)O)cn(C3CC3)c12` (configuration not stated) the MIC was 0.2 mg/L (≈ 0.328 µM).
In the case of `COc1c(N2CCN(Cn3c(O)c(/N=N/C(=N)S)c4cc(Cl)ccc43)C(C)C2)c(F)cc2c(=O)c(C(=O)O)cn(C3CC3)c12` (configuration not stated), the MIC is reported as 0.78 mg/L (≈ 1.21 µM).
`COc1c(N2CCN(Cn3c(O)c(/N=N/C(N)=O)c4ccccc43)C(C)C2)c(F)cc2c(=O)c(C(=O)O)cn(C3CC3)c12` (configuration not stated) gave an MIC of 0.05 mg/L (≈ 0.0845 µM).
For `COc1c(N2CCN(Cn3c(O)c(/N=N/C(N)=O)c4cc(Cl)ccc43)C(C)C2)c(F)cc2c(=O)c(C(=O)O)cn(C3CC3)c12` (configuration not stated), the MIC was 0.78 mg/L (≈ 1.25 µM).
`COc1c(N2CCN(Cn3c(O)c(/N=N/C(=N)S)c4cc(C)ccc43)C(C)C2)c(F)cc2c(=O)c(C(=O)O)cn(C3CC3)c12` (configuration not stated) gave an MIC of 0.78 mg/L (≈ 1.25 µM).
For `COc1c(N2CCN(Cn3c(O)c(/N=N/C(=O)c4ccncc4)c4cc(Cl)ccc43)C(C)C2)c(F)cc2c(=O)c(C(=O)O)cn(C3CC3)c12` (configuration not stated), the MIC was 0.78 mg/L (≈ 1.13 µM).
`COc1c(N2CCN(Cn3c(O)c(/N=N/C(=O)c4ccncc4)c4ccccc43)C(C)C2)c(F)cc2c(=O)c(C(=O)O)cn(C3CC3)c12` (configuration not stated) showed an MIC of 0.2 mg/L (≈ 0.306 µM).
Molecule `COc1c(N2CCNC(C)C2)c(F)cc2c(=O)c(C(=O)O)cn(C3CC3)c12` (configuration not stated) [GATIFLOXACIN] has an MIC of 3.12 mg/L (≈ 8.31 µM).
Molecule `COc1c(N2CCN(Cn3c(O)c(/N=N/C(=N)S)c4ccccc43)C(C)C2)c(F)cc2c(=O)c(C(=O)O)cn(C3CC3)c12` (configuration not stated) has an MIC of 0.2 mg/L (≈ 0.329 µM).
Work on `COc1c(N2CCN(Cn3c(O)c(/N=N/C(N)=O)c4cc(C)ccc43)C(C)C2)c(F)cc2c(=O)c(C(=O)O)cn(C3CC3)c12` (configuration not stated) yielded an MIC of 0.78 mg/L (≈ 1.29 µM).
`COc1c(N2CCN(Cn3c(O)c(/N=N/C(=O)c4ccncc4)c4cc(F)ccc43)C(C)C2)c(F)cc2c(=O)c(C(=O)O)cn(C3CC3)c12` (configuration not stated) was tested, and the MIC was 0.78 mg/L (≈ 1.16 µM).

Source: ChEMBL document CHEMBL1147715, “Gatifloxacin derivatives: synthesis, antimycobacterial activities, and inhibition of Mycobacterium tuberculosis DNA gyrase” (Bioorg Med Chem Lett, 2006)
